From the NIST ThermoML archive (doi:10.1016/j.tca.2015.06.017)

Assay: xn = mol fraction of the nth substance listed
Conditions: Liquid, Vibrating tube method

CCCCCl [1-chlorobutane] + CCCCCCC
mass density [kg/m3]
Conditions	303.15 K	313.15 K	323.15 K
100 kPa, x2 = 0.0508	860.95	849.81	838.56
100 kPa, x2 = 0.0994	847.86	836.88	825.81
100 kPa, x2 = 0.2013	822	811.33	800.61
100 kPa, x2 = 0.3015	798.55	788.17	777.72
100 kPa, x2 = 0.4008	777.02	766.92	756.76
100 kPa, x2 = 0.5026	756.58	746.79	736.89
100 kPa, x2 = 0.6012	738.17	728.67	719.03
100 kPa, x2 = 0.7003	720.97	711.73	702.32
100 kPa, x2 = 0.7995	704.97	695.88	686.71
100 kPa, x2 = 0.9011	689.64	680.8	671.83
100 kPa, x2 = 0.9494	682.71	673.98	665.13
2000 kPa, x2 = 0.0508	863.1	852.16	840.94
2000 kPa, x2 = 0.0994	849.99	839.22	828.16
2000 kPa, x2 = 0.2013	824.16	813.71	802.98
2000 kPa, x2 = 0.3015	800.7	790.49	780.1
2000 kPa, x2 = 0.4008	779.13	769.27	759.09
2000 kPa, x2 = 0.5026	758.72	749.1	739.17
2000 kPa, x2 = 0.6012	740.28	730.92	721.27
2000 kPa, x2 = 0.7003	723.08	713.94	704.55
2000 kPa, x2 = 0.7995	707.04	698.12	688.99
2000 kPa, x2 = 0.9011	691.71	683.02	674.07
2000 kPa, x2 = 0.9494	684.78	676.19	667.35
5000 kPa, x2 = 0.0508	866.34	855.66	844.77
5000 kPa, x2 = 0.0994	853.23	842.7	831.99
5000 kPa, x2 = 0.2013	827.36	817.15	806.76
5000 kPa, x2 = 0.3015	803.89	793.89	783.86
5000 kPa, x2 = 0.4008	782.29	772.63	762.86
5000 kPa, x2 = 0.5026	761.81	752.4	742.92
5000 kPa, x2 = 0.6012	743.41	734.17	724.95
5000 kPa, x2 = 0.7003	726.22	717.17	708.22
5000 kPa, x2 = 0.7995	710.1	701.32	692.58
5000 kPa, x2 = 0.9011	694.74	686.16	677.65
5000 kPa, x2 = 0.9494	687.8	679.3	670.89
7000 kPa, x2 = 0.0508	868.42	857.83	847.24
7000 kPa, x2 = 0.0994	855.3	844.87	834.44
7000 kPa, x2 = 0.2013	829.43	819.33	809.21
7000 kPa, x2 = 0.3015	805.92	796.12	786.24
7000 kPa, x2 = 0.4008	784.34	774.82	765.22
7000 kPa, x2 = 0.5026	763.83	754.59	745.31
7000 kPa, x2 = 0.6012	745.42	736.35	727.32
7000 kPa, x2 = 0.7003	728.16	719.35	710.53
7000 kPa, x2 = 0.7995	712.06	703.48	694.9
7000 kPa, x2 = 0.9011	696.65	688.32	679.93
7000 kPa, x2 = 0.9494	689.71	681.45	673.17
10000 kPa, x2 = 0.0508	871.51	861.16	850.72
10000 kPa, x2 = 0.0994	858.41	848.2	837.9
10000 kPa, x2 = 0.2013	832.51	822.59	812.61
10000 kPa, x2 = 0.3015	808.97	799.33	789.63
10000 kPa, x2 = 0.4008	787.38	777.95	768.57
10000 kPa, x2 = 0.5026	766.86	757.71	748.59
10000 kPa, x2 = 0.6012	748.41	739.49	730.62
10000 kPa, x2 = 0.7003	731.09	722.43	713.78
10000 kPa, x2 = 0.7995	714.97	706.51	698.05
10000 kPa, x2 = 0.9011	699.57	691.27	683.06
10000 kPa, x2 = 0.9494	692.59	684.4	676.28
20000 kPa, x2 = 0.0508	881.1	871.22	861.47
20000 kPa, x2 = 0.0994	867.95	858.21	848.64
20000 kPa, x2 = 0.2013	841.94	832.53	823.24
20000 kPa, x2 = 0.3015	818.31	809.13	800.16
20000 kPa, x2 = 0.4008	796.57	787.71	779.03
20000 kPa, x2 = 0.5026	775.93	767.37	758.92
20000 kPa, x2 = 0.6012	757.4	749.02	740.82
20000 kPa, x2 = 0.7003	740.01	731.86	723.85
20000 kPa, x2 = 0.7995	723.78	715.81	708.08
20000 kPa, x2 = 0.9011	708.24	700.5	692.95
20000 kPa, x2 = 0.9494	701.2	693.56	686.11
30000 kPa, x2 = 0.0508	889.77	880.41	871.14
30000 kPa, x2 = 0.0994	876.56	867.36	858.24
30000 kPa, x2 = 0.2013	850.48	841.53	832.76
30000 kPa, x2 = 0.3015	826.73	818.07	809.58
30000 kPa, x2 = 0.4008	804.94	796.54	788.23
30000 kPa, x2 = 0.5026	784.21	776	767.99
30000 kPa, x2 = 0.6012	765.55	757.6	749.78
30000 kPa, x2 = 0.7003	748.07	740.3	732.75
30000 kPa, x2 = 0.7995	731.77	724.2	716.78
30000 kPa, x2 = 0.9011	716.14	708.75	701.56
30000 kPa, x2 = 0.9494	709.05	701.75	694.65
40000 kPa, x2 = 0.0508	897.85	888.86	880.1
40000 kPa, x2 = 0.0994	884.61	875.75	867.14
40000 kPa, x2 = 0.2013	858.37	849.87	841.52
40000 kPa, x2 = 0.3015	834.56	826.26	818.18
40000 kPa, x2 = 0.4008	812.66	804.63	796.79
40000 kPa, x2 = 0.5026	791.81	783.99	776.38
40000 kPa, x2 = 0.6012	773.04	765.46	758.03
40000 kPa, x2 = 0.7003	755.46	748.11	740.88
40000 kPa, x2 = 0.7995	739	731.87	724.82
40000 kPa, x2 = 0.9011	723.24	716.29	709.43
40000 kPa, x2 = 0.9494	716.11	709.25	702.46
50000 kPa, x2 = 0.0508	905.34	896.61	888.16
50000 kPa, x2 = 0.0994	892.06	883.49	875.18
50000 kPa, x2 = 0.2013	865.75	857.51	849.47
50000 kPa, x2 = 0.3015	841.81	833.86	826.06
50000 kPa, x2 = 0.4008	819.81	812.1	804.52
50000 kPa, x2 = 0.5026	798.87	791.37	784.01
50000 kPa, x2 = 0.6012	780.02	772.75	765.61
50000 kPa, x2 = 0.7003	762.36	755.31	748.29
50000 kPa, x2 = 0.7995	745.84	738.98	732.14
50000 kPa, x2 = 0.9011	729.99	723.31	716.65
50000 kPa, x2 = 0.9494	722.81	716.21	709.64
60000 kPa, x2 = 0.0508	912.31	903.88	895.85
60000 kPa, x2 = 0.0994	899.01	890.72	882.82
60000 kPa, x2 = 0.2013	872.64	864.67	856.99
60000 kPa, x2 = 0.3015	848.6	840.92	833.5
60000 kPa, x2 = 0.4008	826.55	819.09	811.83
60000 kPa, x2 = 0.5026	805.54	798.31	791.24
60000 kPa, x2 = 0.6012	786.57	779.58	772.72
60000 kPa, x2 = 0.7003	768.84	762	755.34
60000 kPa, x2 = 0.7995	752.23	745.59	739.04
60000 kPa, x2 = 0.9011	736.26	729.82	723.43
60000 kPa, x2 = 0.9494	729.04	722.67	716.36
65000 kPa, x2 = 0.0508	915.61	907.45	899.38
65000 kPa, x2 = 0.0994	902.28	894.26	886.34
65000 kPa, x2 = 0.2013	875.88	868.13	860.51
65000 kPa, x2 = 0.3015	851.83	844.29	836.96
65000 kPa, x2 = 0.4008	829.71	822.37	815.25
65000 kPa, x2 = 0.5026	808.61	801.56	794.63
65000 kPa, x2 = 0.6012	789.63	782.77	776.07
65000 kPa, x2 = 0.7003	771.84	765.13	758.61
65000 kPa, x2 = 0.7995	755.19	748.66	742.31
65000 kPa, x2 = 0.9011	739.21	732.82	726.65
65000 kPa, x2 = 0.9494	731.94	725.63	719.56
